The target in assay [1] is T1, human SGLT1 (Homo sapiens, UniProt P13866).
T1 construct: expressed in transfected cells; host or cells: CHO-K1
T1 sequence (P13866 1-664): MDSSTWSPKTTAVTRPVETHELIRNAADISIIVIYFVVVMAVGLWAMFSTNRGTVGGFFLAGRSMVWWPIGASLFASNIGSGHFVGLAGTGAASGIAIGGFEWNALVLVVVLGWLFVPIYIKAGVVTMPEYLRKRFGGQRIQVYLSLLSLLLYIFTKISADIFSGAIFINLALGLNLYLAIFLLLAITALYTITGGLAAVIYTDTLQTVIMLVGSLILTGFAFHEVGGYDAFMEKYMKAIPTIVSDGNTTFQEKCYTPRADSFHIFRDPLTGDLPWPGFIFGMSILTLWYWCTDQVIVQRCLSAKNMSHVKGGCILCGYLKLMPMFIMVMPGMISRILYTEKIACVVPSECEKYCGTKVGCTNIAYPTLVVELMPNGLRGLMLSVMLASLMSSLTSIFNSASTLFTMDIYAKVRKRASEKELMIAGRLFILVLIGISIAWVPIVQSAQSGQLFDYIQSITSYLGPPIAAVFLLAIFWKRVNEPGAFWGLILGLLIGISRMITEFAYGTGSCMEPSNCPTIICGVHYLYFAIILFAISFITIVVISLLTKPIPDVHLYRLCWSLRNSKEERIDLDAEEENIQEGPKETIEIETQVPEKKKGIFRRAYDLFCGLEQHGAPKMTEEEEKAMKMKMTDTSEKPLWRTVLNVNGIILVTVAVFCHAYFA
As to the kind of experiment: SGLT1 inhibition assay, 14C-AMG uptake in CHO-K1 cells stably expressing human SGLT1. It is filed as cell-based. The procedure:
(§1) The cells were incubated for 24 hours. […] Plates were counted in a TopCount (Packard, Meriden, Conn.). Each experiment was repeated at least twice.
(§2) Results are reported as the %-inhibition or IC50 value.

Assay [2] concerns the target T2, human SGLT2 (Homo sapiens, UniProt P31639).
T2 construct: expressed in transfected cells; host or cells: CHO-K1
T2 sequence (P31639 1-672): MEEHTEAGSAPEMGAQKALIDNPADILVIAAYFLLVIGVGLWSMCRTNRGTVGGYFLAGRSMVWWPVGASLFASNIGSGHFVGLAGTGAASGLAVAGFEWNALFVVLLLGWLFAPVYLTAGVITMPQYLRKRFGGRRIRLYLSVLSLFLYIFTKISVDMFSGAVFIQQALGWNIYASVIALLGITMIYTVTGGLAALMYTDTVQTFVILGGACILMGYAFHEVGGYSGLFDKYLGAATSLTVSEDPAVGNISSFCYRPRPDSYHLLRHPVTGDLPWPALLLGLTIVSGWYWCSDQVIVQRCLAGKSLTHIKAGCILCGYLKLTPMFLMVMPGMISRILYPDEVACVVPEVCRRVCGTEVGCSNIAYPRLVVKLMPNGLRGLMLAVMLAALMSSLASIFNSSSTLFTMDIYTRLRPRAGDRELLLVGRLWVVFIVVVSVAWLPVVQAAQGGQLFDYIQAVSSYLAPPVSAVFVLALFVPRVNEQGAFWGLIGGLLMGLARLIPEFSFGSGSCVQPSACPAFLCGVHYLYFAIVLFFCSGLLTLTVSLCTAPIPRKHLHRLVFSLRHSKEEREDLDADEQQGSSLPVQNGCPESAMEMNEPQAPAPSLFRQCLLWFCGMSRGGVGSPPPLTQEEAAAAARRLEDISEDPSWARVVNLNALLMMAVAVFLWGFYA
Put plainly: SGLT2 inhibition assay, 14C-AMG uptake in CHO-K1 cells stably expressing human SGLT2. It is filed as cell-based. On the procedure:
as §1, §2

Setting [3] is: CHO-K1, CHO-K1 cells, 1 μM test compound, read-out: CHO-K1 Cells SGLT1 % Inh @1 μM.

Our source for the inhibition and IC50 values is US20210388015A1, “GLUCOPYRANOSE DERIVATIVES USEFUL AS SGLT2 INHIBITORS” (Janssen Pharmaceutica NV, priority 2018, published 2021).

Structures are written as SMILES. Counter-ions that a name gives are not always drawn. Like-named read-outs stand apart in the source and are kept apart here.

On to `C[N+]1(CCCCCOc2ccc(Cc3cc([C@@H]4O[C@H](CO)[C@@H](O)[C@H](O)[C@H]4O)ccc3Cl)cc2)CCCC1` [Compound 6, 1-(5-(4-(2-chloro-5-((2S,3R,4R,5S,6R)-3,4,5-trihydroxy-6-(hydroxymethyl)tetrahydro-2H-pyran-2-yl)benzyl)phenoxy)pentyl)-1-methylpyrrolidin-1-ium trifluoroacetate], for which the inhibition at 1 µM in assay [1] (setting [3]) was found to be 43.1%.

On to `OC[C@H]1O[C@@H](c2ccc(Cl)c(Cc3ccc(OCCOCCOc4ccc(Cc5cc([C@@H]6O[C@H](CO)[C@@H](O)[C@H](O)[C@H]6O)ccc5Cl)cc4)cc3)c2)[C@H](O)[C@@H](O)[C@@H]1O` [Compound 10, (2R,2′R,3S,3′S,4R,4′R,5R,5′R,6S,6′S)-6,6′-(((((oxybis(ethane-2,1-diyl))bis(oxy))bis(4,1-phenylene))bis(methylene))bis(4-chloro-3,1-phenylene))bis(2-(hydroxymethyl)tetrahydro-2H-pyran-3,4,5-triol)], for which the IC50 in assay [2] turned out to be 7.6 nM; in assay [1] (CHO-K1 cells, IC50 printed in the % Inh column), 1490 nM.

On to `O=S(=O)(O)CCCOc1ccc(Cc2cc([C@@H]3O[C@H](CO)[C@@H](O)[C@H](O)[C@H]3O)ccc2Cl)cc1` [Compound 2, 3-(4-(2-chloro-5-((2S,3R,4R,5S,6R)-3,4,5-trihydroxy-6-(hydroxymethyl)tetrahydro-2H-pyran-2-yl)benzyl)phenoxy)propane-1-sulfonic acid], for which the inhibition at 1 µM in assay [1] (setting [3]) was found to be 20%.

In assay [2], `OC[C@H]1O[C@@H](c2ccc(Cl)c(Cc3ccc(OCc4ccc(COc5ccc(Cc6cc([C@@H]7O[C@H](CO)[C@@H](O)[C@H](O)[C@H]7O)ccc6Cl)cc5)cc4)cc3)c2)[C@H](O)[C@@H](O)[C@@H]1O` [Compound 13] came in with an IC50 of 32 nM.

Consider `COCCOCCOCCOCCOc1ccc(Cc2cc([C@@H]3O[C@H](CO)[C@@H](O)[C@H](O)[C@H]3O)ccc2Cl)cc1` [Compound 1], for which, in assay [1] (setting [3]), the inhibition at 1 µM is 14.5%.

As to `C[N+](C)(CCOc1ccc(Cc2cc([C@@H]3O[C@H](CO)[C@@H](O)[C@H](O)[C@H]3O)ccc2Cl)cc1)CCOc1ccc(Cc2cc([C@@H]3O[C@H](CO)[C@@H](O)[C@H](O)[C@H]3O)ccc2Cl)cc1` [Compound 15, trifluoroacetate], the IC50 in assay [2] was determined as 121 nM.

For the compound `OC[C@H]1O[C@@H](c2ccc(Cl)c(Cc3ccc(OCCOCCOCCOc4ccc(Cc5cc([C@@H]6O[C@H](CO)[C@@H](O)[C@H](O)[C@H]6O)ccc5Cl)cc4)cc3)c2)[C@H](O)[C@@H](O)[C@@H]1O` [Compound 11], inhibition in assay [2] was half-maximal at 20.8 nM (IC50). This IC50 is about 5.8-fold lower than that of the compound before.

`OC[C@H]1O[C@@H](c2ccc(Cl)c(Cc3ccc(OCCOCCOCCOCCOc4ccc(Cc5cc([C@@H]6O[C@H](CO)[C@@H](O)[C@H](O)[C@H]6O)ccc5Cl)cc4)cc3)c2)[C@H](O)[C@@H](O)[C@@H]1O` [Compound 12] had an IC50 in assay [2] of 9.6 nM.

`O=C(O)C(CCC(Oc1ccc(Cc2cc([C@@H]3O[C@H](CO)[C@@H](O)[C@H](O)[C@H]3O)ccc2Cl)cc1)C(=O)O)Oc1ccc(Cc2cc([C@@H]3O[C@H](CO)[C@@H](O)[C@H](O)[C@H]3O)ccc2Cl)cc1` (mixture of isomers) [Compound 18]: in assay [2], inhibition was half-maximal at 377 nM (IC50).

For `C[N+]1(CCOCCOc2ccc(Cc3cc([C@@H]4O[C@H](CO)[C@@H](O)[C@H](O)[C@H]4O)ccc3Cl)cc2)CCCC1` [Compound 7], the inhibition at 1 µM in assay [1] (setting [3]) is 17.5%.

As for `OC[C@H]1O[C@@H](c2ccc(Cl)c(Cc3ccc(OCc4ccc(COc5ccc(Cc6cc([C@@H]7O[C@H](CO)[C@@H](O)[C@H](O)[C@H]7O)ccc6Cl)cc5)nc4)cc3)c2)[C@H](O)[C@@H](O)[C@@H]1O` [Compound 14, (2R,2′R,3S,3′S,4R,4′R,5R,5′R,6S,6′S)-6,6′-(((((pyridine-2,5-diylbis(methylene))bis(oxy))bis(4,1-phenylene))bis(methylene))bis(4-chloro-3,1-phenylene))bis(2-(hydroxymethyl)tetrahydro-2H-pyran-3,4,5-triol) trifluoroacetate], the IC50 in assay [2] was 4.8 nM. In addition, in assay [1] (CHO-K1, read-out: CHO-K1 Cells SGLT1 % Inh @1 μM), the inhibition at 1 µM was found to be 19%.

In the case of `C[N+]1(Cc2ccc(COc3ccc(Cc4cc([C@@H]5O[C@H](CO)[C@@H](O)[C@H](O)[C@H]5O)ccc4Cl)cc3)cc2)CCC(CCC2CC[N+](C)(Cc3ccc(COc4ccc(Cc5cc([C@@H]6O[C@H](CO)[C@@H](O)[C@H](O)[C@H]6O)ccc5Cl)cc4)cc3)CC2)CC1` (stereo partly drawn) [Compound 17, 4,4′-(ethane-1,2-diyl)bis(1-(4-((4-(2-chloro-5-((2S,3R,4R,5S,6R)-3,4,5-trihydroxy-6-(hydroxymethyl)tetrahydro-2H-pyran-2-yl)benzyl)phenoxy)methyl)benzyl)-1-methylpiperidin-1-ium) trifluoroacetate], the IC50 in assay [2] is 5 nM.

In turn, `OC[C@H]1O[C@H](c2ccc(Cl)c(Cc3ccc(OCc4cc(COc5ccc(Cc6cc([C@@H]7O[C@H](CO)[C@@H](O)[C@H](O)[C@H]7O)ccc6Cl)cc5)c(COc5ccc(Cc6cc([C@@H]7O[C@H](CO)[C@@H](O)[C@H](O)[C@H]7O)ccc6Cl)cc5)cc4COc4ccc(Cc5cc([C@@H]6O[C@H](CO)[C@@H](O)[C@H](O)[C@H]6O)ccc5Cl)cc4)cc3)c2)[C@H](O)[C@@H](O)[C@@H]1O` [(III), (2R,2′R,2″R,3S,3′S,3″S,4R,4′R,4″R,5R,5′R,5″R,6S,6′S,6″S)-6,6′,6″-((((((5-((4-(2-chloro-5-((2R,3R,4R,5S,6R)-3,4,5-trihydroxy-6-(hydroxymethyl)tetrahydro-2H-pyran-2-yl)benzyl)phenoxy)methyl)benzene-1,2,4-triyl)tris(methylene))tris(oxy))tris(benzene-4,1-diyl))tris(methylene))tris(4-chlorobenzene-3,1-diyl))tris(2-(hydroxymethyl)tetrahydro-2H-pyran-3,4,5-triol)] yielded an IC50 in assay [2] of 33 nM.

In assay [2], `C[N+]1(Cc2ccc(COc3ccc(Cc4cc([C@@H]5O[C@H](CO)[C@@H](O)[C@H](O)[C@H]5O)ccc4Cl)cc3)cc2)CCC(C2CC[N+](C)(Cc3ccc(COc4ccc(Cc5cc([C@@H]6O[C@H](CO)[C@@H](O)[C@H](O)[C@H]6O)ccc5Cl)cc4)cc3)CC2)CC1` (stereo partly drawn) [Compound 16, 1,1′-bis(4-((4-(2-chloro-5-((2S,3R,4R,5S,6R)-3,4,5-trihydroxy-6-(hydroxymethyl)tetrahydro-2H-pyran-2-yl)benzyl)phenoxy)methyl)benzyl)-1,1′-dimethyl-[4,4′-bipiperidine]-1,1′-diium trifluoroacetate] came in with an IC50 of 4 nM. Against the preceding compound, the IC50 is about 8.2-fold lower.

`C[N+](C)(CCCc1ccc(-c2ccc(Cc3cc([C@@H]4O[C@H](CO)[C@@H](O)[C@H](O)[C@H]4O)ccc3Cl)s2)cc1)CCOc1ccc(-c2ccc(Cc3cc([C@@H]4O[C@H](CO)[C@@H](O)[C@H](O)[C@H]4O)ccc3Cl)s2)cc1` [Compound 19, N-(2-(4-(5-(2-chloro-5-((2S,3R,4R,5S,6R)-3,4,5-trihydroxy-6-(hydroxymethyl)tetrahydro-2H-pyran-2-yl)benzyl)thiophen-2-yl)phenoxy)ethyl)-3-(4-(5-(2-chloro-5-((2S,3R,4R,5S,6R)-3,4,5-trihydroxy-6-(hydroxymethyl)tetrahydro-2H-pyran-2-yl)benzyl)thiophen-2-yl)phenyl)-N,N-dimethylpropan-1-aminium trifluoroacetate] registered an IC50 in assay [2] of 24 nM.
